In PubChem BioAssay (NCI):
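Growth conditions: 96-well plates. Treatment: test compound, 48 hours, 5 concentrations. Analysis: linear interpolation between bracketing concentrations; unreached endpoints set to highest concentration. TGI is the concentration that stops growth completely.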

Assays:
Experiment in all cases: NCI-60 cell line screen, 48 h
[1] = system: A498 renal
[2] = system: U251 CNS
[3] = system: MDA-MB-435
[4] = system: HOP-62 NSCLC
[5] = system: EKVX NSCLC
[6] = system: MOLT-4 leukemia
[7] = system: HCC-2998 colon
[8] = system: HCT-15 colon
[9] = system: OVCAR-8 ovarian
[10] = system: A549 NSCLC
[11] = system: SR leukemia
[12] = system: HCT-116 colon
[13] = system: COLO 205 colon
[14] = system: CCRF-CEM leukemia
[15] = system: CAKI-1 renal
[16] = system: TK-10 renal
[17] = system: OVCAR-3 ovarian
[18] = system: K-562 leukemia
[19] = system: PC-3 prostate
[20] = system: KM12 colon
[21] = system: NCI-H23 lung
[22] = system: UACC-257 melanoma
[23] = system: SF-295 CNS
[24] = system: SN12C renal
[25] = system: UO-31 renal
[26] = system: BT-549 breast
[27] = system: HL-60(TB) leukemia
[28] = system: SK-MEL-2 melanoma
[29] = system: LOX IMVI melanoma
[30] = system: SK-MEL-28 melanoma
[31] = system: SF-539 CNS
[32] = system: 786-0 renal
[33] = system: ACHN renal
[34] = system: MCF7 breast
[35] = system: SNB-19 CNS
[36] = system: NCI-H460 lung
[37] = system: OVCAR-5 ovarian
[38] = system: M14 melanoma
[39] = system: UACC-62 melanoma
[40] = system: SW-620 colon
[41] = system: DU-145 prostate
[42] = system: SK-MEL-5 melanoma
[43] = system: HS 578T breast
[44] = system: MALME-3M melanoma
[45] = system: NCI-H226 lung
[46] = system: T-47D breast
[47] = system: NCI/ADR-RES ovarian
[48] = system: NCI-H522 lung
[49] = system: SNB-75 CNS
[50] = system: HOP-92 NSCLC
[51] = system: SF-268 CNS
[52] = system: IGROV1 ovarian
[53] = system: MDA-MB-231 breast
[54] = system: OVCAR-4 ovarian
[55] = system: RXF 393 renal
[56] = system: RPMI-8226 leukemia
[57] = system: SK-OV-3 ovarian
[58] = system: HT29 colon

`COc1ccc(P2(=S)OCCOP(=S)(c3ccc(OC)cc3)S2)cc1` (stereo not drawn) was tested, and the TGI [1] was 7.05 µM, the TGI [2] was > 100 µM and the TGI [3] was 40.7 µM. The TGI [4] was > 100 µM, the TGI [5] was > 100 µM and the TGI [6] was > 39.5 µM. The TGI [7] was 7.5 µM, the TGI [8] was > 100 µM and the TGI [9] was > 61.6 µM. The TGI [10] was > 100 µM, the TGI [11] was > 100 µM and the TGI [12] was > 100 µM. The TGI [13] was 55.8 µM, the TGI [14] was 25.1 µM and the TGI [15] was > 100 µM. The TGI [16] was > 100 µM, the TGI [17] was 6.11 µM and the TGI [18] was > 100 µM. For the same compound, the TGI [19] was 5.48 µM, the TGI [20] was > 100 µM and the TGI [21] was > 100 µM. For the same compound, the TGI [22] was > 79.8 µM, the TGI [23] was > 27.6 µM and the TGI [24] was 33.9 µM. The TGI [25] was > 50.7 µM, the TGI [26] was > 79.9 µM and the TGI [27] was > 23.3 µM. For the same compound, the TGI [28] was > 100 µM, the TGI [29] was 42.6 µM and the TGI [30] was > 100 µM. For the same compound, the TGI [31] was 6.7 µM, the TGI [32] was > 42 µM and the TGI [33] was > 100 µM. The TGI [34] was 19.4 µM, the TGI [35] was > 100 µM and the TGI [36] was > 32.2 µM. The TGI [37] was > 100 µM, the TGI [38] was > 100 µM and the TGI [39] was > 100 µM. For the same compound, the TGI [40] was > 100 µM, the TGI [41] was > 100 µM and the TGI [42] was > 41.9 µM. For the same compound, the TGI [43] was > 100 µM, the TGI [44] was > 100 µM and the TGI [45] was > 100 µM. The TGI [46] was > 100 µM, the TGI [47] was > 100 µM and the TGI [48] was 6.11 µM. The TGI [49] was > 100 µM, the TGI [50] was > 100 µM and the TGI [51] was > 100 µM. The TGI [52] was > 100 µM, the TGI [53] was > 100 µM and the TGI [54] was > 100 µM.

`CNc1ccccc1S(=O)(=O)c1ccccc1[N+](=O)[O-]` was tested, and the TGI [1] was > 100 µM, the TGI [2] was > 100 µM and the TGI [3] was > 100 µM. For the same compound, the TGI [4] was > 100 µM, the TGI [5] was > 100 µM and the TGI [6] was > 100 µM. The TGI [7] was > 100 µM, the TGI [8] was > 100 µM and the TGI [10] was > 100 µM. For the same compound, the TGI [11] was > 100 µM, the TGI [12] was > 100 µM and the TGI [13] was > 100 µM. The TGI [55] was > 100 µM, the TGI [14] was > 100 µM and the TGI [16] was > 100 µM. For the same compound, the TGI [56] was > 100 µM, the TGI [17] was > 100 µM and the TGI [18] was > 100 µM. The TGI [19] was > 100 µM, the TGI [20] was > 100 µM and the TGI [21] was > 100 µM. The TGI [23] was > 100 µM, the TGI [24] was > 100 µM and the TGI [25] was > 100 µM. The TGI [26] was 65.3 µM, the TGI [27] was > 100 µM and the TGI [28] was > 100 µM. The TGI [29] was > 100 µM, the TGI [30] was > 100 µM and the TGI [31] was > 100 µM. For the same compound, the TGI [32] was > 100 µM, the TGI [33] was > 100 µM and the TGI [34] was > 100 µM. The TGI [35] was > 100 µM, the TGI [57] was > 100 µM and the TGI [36] was > 100 µM. The TGI [37] was > 100 µM, the TGI [38] was > 100 µM and the TGI [39] was > 100 µM. For the same compound, the TGI [40] was > 100 µM, the TGI [41] was > 100 µM and the TGI [42] was > 100 µM. The TGI [43] was > 100 µM, the TGI [58] was > 100 µM and the TGI [44] was > 100 µM. For the same compound, the TGI [45] was > 100 µM, the TGI [46] was > 100 µM and the TGI [47] was > 100 µM. For the same compound, the TGI [48] was > 100 µM, the TGI [49] was > 100 µM and the TGI [51] was > 100 µM. For the same compound, the TGI [52] was > 100 µM, the TGI [53] was > 100 µM and the TGI [54] was > 100 µM.
